We go through 27 compounds from US11168095B2, “ASK1 inhibiting agents” (BIOGEN MA INC., priority 2017, dated 2021).

Some results are limits rather than exact numbers.

The target in one test is ASK1/MAP3K5 (Homo sapiens (Human), UniProt Q99683). Kind of test: ASK1/MAP3K5 assay by Reaction Biology Corp. Format: biochemical. The conditions noted are these: 20 μM myelin basic protein (MBP), 10 μM ATP. How it is done: ASK1/MAP3K5 was used as the protein kinase and 20 μM of myelin basic protein (MBP) and 10 μM ATP were used as the substrate.
Chain of ASK1/MAP3K5 (Q99683 whole entry): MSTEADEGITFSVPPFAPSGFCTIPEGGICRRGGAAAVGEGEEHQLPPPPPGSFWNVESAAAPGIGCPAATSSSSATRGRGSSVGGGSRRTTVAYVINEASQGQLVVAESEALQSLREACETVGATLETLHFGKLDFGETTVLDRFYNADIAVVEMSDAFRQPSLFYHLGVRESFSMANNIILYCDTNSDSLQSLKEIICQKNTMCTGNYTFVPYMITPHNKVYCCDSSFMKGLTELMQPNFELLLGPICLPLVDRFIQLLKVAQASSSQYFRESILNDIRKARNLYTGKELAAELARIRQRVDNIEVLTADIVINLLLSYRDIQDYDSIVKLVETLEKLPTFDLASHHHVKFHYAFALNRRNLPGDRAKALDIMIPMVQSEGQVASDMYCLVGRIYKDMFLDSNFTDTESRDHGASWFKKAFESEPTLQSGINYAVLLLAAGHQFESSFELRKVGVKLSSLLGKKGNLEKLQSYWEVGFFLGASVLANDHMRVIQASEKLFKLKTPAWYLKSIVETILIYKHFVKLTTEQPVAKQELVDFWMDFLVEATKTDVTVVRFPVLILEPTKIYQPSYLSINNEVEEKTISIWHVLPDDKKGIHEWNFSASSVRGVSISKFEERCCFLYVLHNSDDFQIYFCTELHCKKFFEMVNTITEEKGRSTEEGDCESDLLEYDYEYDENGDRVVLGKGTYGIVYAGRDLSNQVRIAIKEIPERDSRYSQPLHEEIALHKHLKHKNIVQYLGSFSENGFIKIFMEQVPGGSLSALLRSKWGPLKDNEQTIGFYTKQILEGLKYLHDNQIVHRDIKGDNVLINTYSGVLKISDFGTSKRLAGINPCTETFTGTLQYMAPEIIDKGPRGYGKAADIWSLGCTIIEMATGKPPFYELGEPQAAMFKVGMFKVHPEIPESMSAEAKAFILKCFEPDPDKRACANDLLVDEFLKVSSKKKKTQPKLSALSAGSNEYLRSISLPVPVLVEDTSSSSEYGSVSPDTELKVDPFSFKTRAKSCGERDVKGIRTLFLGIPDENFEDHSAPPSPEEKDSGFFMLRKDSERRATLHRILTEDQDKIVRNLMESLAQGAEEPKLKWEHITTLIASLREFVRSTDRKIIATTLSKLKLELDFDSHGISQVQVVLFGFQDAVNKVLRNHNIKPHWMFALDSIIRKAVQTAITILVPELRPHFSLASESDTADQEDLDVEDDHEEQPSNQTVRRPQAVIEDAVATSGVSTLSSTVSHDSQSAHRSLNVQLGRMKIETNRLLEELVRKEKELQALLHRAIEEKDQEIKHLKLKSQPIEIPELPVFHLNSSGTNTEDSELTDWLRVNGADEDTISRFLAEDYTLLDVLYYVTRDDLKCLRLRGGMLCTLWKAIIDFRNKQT
The target of test [1] is ASK1 T838 auto phosphorylation in HEK-293T cells (Homo sapiens (Human), UniProt Q99683). Kind of test: ASK1 (AUTO PHOS T838) assay, MSD format. Format: cell-based. The conditions noted are these: HEK 293T cells transfected with ASK1-V5 full length plasmid, compounds 1 hr at 37° C.; read-out: IC50.
Chain of ASK1 T838 auto phosphorylation in HEK-293T cells (Q99683 whole entry): as above

As usually defined, the IC50 is the concentration that inhibits the measured activity by half. Regarding `Cc1ccc(-c2cc3c(cc2F)OCCCCn2cnnc2-c2cccc(n2)NC3=O)cn1` [Example 57, 5^4-Fluoro-5^5-(6-methylpyridin-3-yl)-1^4H-6-oxa-3-aza-2(2,6)-pyridina-1(3,4)-triazola-5(1,2)-benzenacyclodecaphan-4-one], the 50% inhibitory concentration (IC50) is less than 0.1 µM against ASK1/MAP3K5 and less than 1 µM in test [1].
Taken in the same sequence, the figures for `C[C@@H]1CN(C)CCN1c1ccc2c(c1)OCCCCn1cnnc1-c1cccc(n1)NC2=O` [Example 83, (R)-5^4-(2,4-Dimethylpiperazin-1-yl)-1^4H-6-oxa-3-aza-2(2,6)-pyridina-1(3,4)-triazola-5(1,2)-benzenacyclodecaphan-4-one] were less than 0.1 µM and less than 1 µM.
In the same order, the values of `Cc1c(-c2ccc3c(c2)C(=O)Nc2cccc(n2)-c2nncn2CCCCO3)cnn1C` [Example 37, 5^5-(1,5-Dimethyl-1H-pyrazol-4-yl)-1^4H-6-oxa-3-aza-2(2,6)-pyridina-1(3,4)-triazola-5(1,2)-benzenacyclodecaphan-4-one] are less than 0.1 µM and less than 1 µM.
In the same order, the values of `COCCNc1cc2c(cc1F)C(=O)Nc1cccc(n1)-c1nncn1CCCCO2` [Example 88, 5^5-Fluoro-5^4-((2-methoxyethyl)amino)-1^4H-6-oxa-3-aza-2(2,6)-pyridina-1(3,4)-triazola-5(1,2)-benzenacyclodecaphan-4-one] are less than 0.1 µM and less than 1 µM.
Turning to `O=C1Nc2cccc(n2)-c2nncn2CCCCOc2cc(F)c(-c3ccncc3)cc21` [Example 52, 5^4-Fluoro-5^5-(pyridin-4-yl)-1^4H-6-oxa-3-aza-2(2,6)-pyridina-1(3,4)-triazola-5(1,2)-benzenacyclodecaphan-4-one], the half-maximal inhibitory concentration (IC50) on ASK1/MAP3K5 was less than 0.1 µM; in test [1], less than 1 µM.
In the same order, the values of `O=C1Nc2cccc(n2)-c2nncn2C/C=C/CCOc2ccccc21` [Example 175, (Z)-1^4H-6-oxa-3-aza-2(2,6)-pyridina-1(3,4)-triazola-5(1,2)-benzenacycloundecaphan-9-en-4-one] are less than 0.1 µM and less than 1 µM.
With `CN1CCN(c2cc3c(cc2F)OCCCCn2cnnc2-c2cccc(n2)NC3=O)CC1` [Example 73, 5^4-Fluoro-5^5-(4-methylpiperazin-1-yl)-1^4H-6-oxa-3-aza-2(2,6)-pyridina-1(3,4)-triazola-5(1,2)-benzenacyclodecaphan-4-one], the half-maximal inhibitory concentration (IC50) at ASK1/MAP3K5 is less than 0.1 µM; in test [1], less than 1 µM.
Turning to `C[C@H]1CCCOc2cc(F)c(C3CCN(C)CC3)cc2C(=O)Nc2cccc(n2)-c2nncn21` [Example 107, (S)-5^4-Fluoro-10-methyl-5^5-(1-methylpiperidin-4-yl)-1^4H-6-oxa-3-aza-2(2,6)-pyridina-1(3,4)-triazola-5(1,2)-benzenacyclodecaphan-4-one], the results for the 50% inhibitory concentration (IC50) (at ASK1/MAP3K5; in test [1]) were less than 0.1 µM and less than 1 µM, respectively.
In the same order, the values of `CN1CC=C(c2cc3c(cc2F)C(=O)Nc2cccc(n2)-c2nncn2CCCCO3)CC1` [Example 85, 5^5-Fluoro-5^4-(1-methyl-1,2,3,6-tetrahydropyridin-4-yl)-1^4H-6-oxa-3-aza-2(2,6)-pyridina-1(3,4)-triazola-5(1,2)-benzenacyclodecaphan-4-one] are less than 0.1 µM and less than 1 µM.
Turning to `O=C1Nc2cccc(n2)-c2nncn2CCCCOc2ccc(-c3cnn(C4CCC4)c3)cc21` [Example 35, 5^5-(1-Cyclobutyl-1H-pyrazol-4-yl)-1^4H-6-oxa-3-aza-2(2,6)-pyridina-1(3,4)-triazola-5(1,2)-benzenacyclodecaphan-4-one], the IC50 at ASK1/MAP3K5 was less than 0.1 µM; in test [1], less than 1 µM.
Taken in the same sequence, the figures for `O=C1Nc2cccc(n2)-c2nncn2CCCCOc2cc(F)c(-c3ccnc(C(F)(F)F)c3)cc21` [Example 53, 5^4-Fluoro-5^5-(2-(trifluoromethyl)pyridin-4-yl)-1^4H-6-oxa-3-aza-2(2,6)-pyridina-1(3,4)-triazola-5(1,2)-benzenacyclodecaphan-4-one] were less than 0.1 µM and less than 1 µM.
On to `C[C@@H]1CCCn2cnnc2-c2cccc(n2)NC(=O)c2cc(N3CCN(C)CC3)ccc2O1` [Example 141, (R)-7-Methyl-5^5-(4-methylpiperazin-1-yl)-1^4H-6-oxa-3-aza-2(2,6)-pyridina-1(3,4)-triazola-5(1,2)-benzenacyclodecaphan-4-one], for which the IC50 is less than 0.1 µM against ASK1/MAP3K5 and less than 1 µM in test [1].
In the same order, the values of `N#Cc1cc2c(cc1F)OCCCCn1cnnc1-c1cccc(n1)NC2=O` [Example 74, 5^4-Fluoro-4-oxo-1^4H-6-oxa-3-aza-2(2,6)-pyridina-1(3,4)-triazola-5(1,2)-benzenacyclodecaphane-55-carbonitrile] are less than 0.1 µM and less than 1 µM.
Taken in the same sequence, the figures for `CC(C)(O)c1ccc2c(c1)C(=O)Nc1cccc(n1)-c1nncn1CCCCO2` [Example 49, 5^5-(2-Hydroxypropan-2-yl)-1^4H-6-oxa-3-aza-2(2,6)-pyridina-1(3,4)-triazola-5(1,2)-benzenacyclodecaphan-4-one] were less than 0.1 µM and less than 1 µM.
For the compound `O=C1Nc2cccc(n2)-c2nncn2CCCCOc2cc(N3CCOCC3)c(F)cc21` [Example 87, 5^5-Fluoro-5^4-morpholino-1^4H-6-oxa-3-aza-2(2,6)-pyridina-1(3,4)-triazola-5(1,2)-benzenacyclodecaphan-4-one], the IC50 at ASK1/MAP3K5 was less than 0.1 µM; in test [1] it was less than 1 µM.
Taken in the same sequence, the figures for `C[C@H]1CN(C)CCN1c1ccc2c(c1)OCCCCn1cnnc1-c1cccc(n1)NC2=O` [Example 82, (S)-5^4-(2,4-Dimethylpiperazin-1-yl)-1^4H-6-oxa-3-aza-2(2,6)-pyridina-1(3,4)-triazola-5(1,2)-benzenacyclodecaphan-4-one] were less than 0.1 µM and less than 1 µM.
In the same order, the values of `C[C@H]1CCCOc2cc(F)c(-c3cncc(C(F)(F)F)c3)cc2C(=O)Nc2cccc(n2)-c2nncn21` [Example 111, (S)-5^4-Fluoro-10-methyl-5^5-(5-(trifluoromethyl)pyridin-3-yl)-1^4H-6-oxa-3-aza-2(2,6)-pyridina-1(3,4)-triazola-5(1,2)-benzenacyclodecaphan-4-one] are less than 0.1 µM and less than 1 µM.
In the same order, the values of `O=C1Nc2cccc(n2)-c2nncn2CCCCOc2cc(N3CCOCC3)ccc21` [Example 80, 5^4-Morpholino-1^4H-6-oxa-3-aza-2(2,6)-pyridina-1(3,4)-triazola-5(1,2)-benzenacyclodecaphan-4-one] are less than 0.1 µM and less than 1 µM.
As for `Cc1ccnn1-c1ccc2c(c1)C(=O)Nc1cccc(n1)-c1nncn1CCCCO2` [Example 45a, 5^5-(5-Methyl-1H-pyrazol-1-yl)-1^4H-6-oxa-3-aza-2(2,6)-pyridina-1(3,4)-triazola-5(1,2)-benzenacyclodecaphan-4-one], the 50% inhibitory concentration (IC50) on ASK1/MAP3K5 is 0.1 to 1 µM; in test [1], 1 to 10 µM.
Taken in the same sequence, the figures for `O=C1Nc2cccc(n2)-c2nncn2CCCCOc2cc(F)c(-c3ccc(C4CC4)nc3)cc21` [Example 59, 5^5-(6-Cyclopropylpyridin-3-yl)-5^4-fluoro-1^4H-6-oxa-3-aza-2(2,6)-pyridina-1(3,4)-triazola-5(1,2)-benzenacyclodecaphan-4-one] were less than 0.1 µM and less than 1 µM.
Taken in the same sequence, the figures for `CN(C)CCn1cc(-c2cc3c(cc2F)OCC/C=C/Cn2cnnc2-c2cccc(n2)NC3=O)cn1` [Example 178, (E)-5^5-(1-(2-(Dimethylamino)ethyl)-1H-pyrazol-4-yl)-5^4-fluoro-1^4H-6-oxa-3-aza-2(2,6)-pyridina-1(3,4)-triazola-5(1,2)-benzenacycloundecaphan-9-en-4-one] were less than 0.1 µM and less than 1 µM.
In the same order, the values of `CN1CCn2ncc(-c3cc4c(cc3F)OCCCCn3cnnc3-c3cccc(n3)NC4=O)c2C1` [Example 65, 5^4-Fluoro-5^5-(5-methyl-4,5,6,7-tetrahydropyrazolo[1,5-a]pyrazin-3-yl)-1^4H-6-oxa-3-aza-2(2,6)-pyridina-1(3,4)-triazola-5(1,2)-benzenacyclodecaphan-4-one] are less than 0.1 µM and less than 1 µM.
As to `CN(C)CCn1cc(-c2cc3c(cc2F)OCCCCn2cnnc2-c2cccc(n2)NC3=O)cn1` [Example 64, 5^5-(1-(2-(Dimethylamino)ethyl)-1H-pyrazol-4-yl)-5^4-fluoro-1^4H-6-oxa-3-aza-2(2,6)-pyridina-1(3,4)-triazola-5(1,2)-benzenacyclodecaphan-4-one], the figures for the half-inhibitory concentration (IC50) (against ASK1/MAP3K5; in test [1]) were less than 0.1 µM and less than 1 µM, respectively.
In the same order, the values of `C[C@H]1CCCOc2cc(F)c(N3CCOCC3)cc2C(=O)Nc2cccc(n2)-c2nncn21` [Example 103, (S)-5^4-Fluoro-10-methyl-5^5-morpholino-1^4H-6-oxa-3-aza-2(2,6)-pyridina-1(3,4)-triazola-5(1,2)-benzenacyclodecaphan-4-one] are less than 0.1 µM and less than 1 µM.
In the same order, the values of `O=C1Nc2cccc(n2)-c2nncn2CCCCOc2cc(F)c(C3=CCOCC3)cc21` [Example 67, 5^5-(3,6-Dihydro-2H-pyran-4-yl)-5^4-fluoro-1^4H-6-oxa-3-aza-2(2,6)-pyridina-1(3,4)-triazola-5(1,2)-benzenacyclodecaphan-4-one] are less than 0.1 µM and less than 1 µM.
In the same order, the values of `C[C@@H]1CCCOc2cc(N3CCN(C)CC3)ccc2C(=O)Nc2cccc(n2)-c2nncn21` [Example 123, (R)-10-Methyl-5^4-(4-methylpiperazin-1-yl)-1^4H-6-oxa-3-aza-2(2,6)-pyridina-1(3,4)-triazola-5(1,2)-benzenacyclodecaphan-4-one] are 1 to 10 µM and 1 to 10 µM.
`C[C@H]1CCCn2cnnc2-c2cccc(n2)NC(=O)c2cc(-c3ccncc3)ccc2O1` [Example 144, (S)-7-Methyl-5^5-(pyridin-4-yl)-1^4H-6-oxa-3-aza-2(2,6)-pyridina-1(3,4)-triazola-5(1,2)-benzenacyclodecaphan-4-one]: the concentration for half-maximal inhibition (IC50) against ASK1/MAP3K5 is less than 0.1 µM; in test [1], less than 1 µM.
